Laboratory results reported in patent US10960018B2, “Methods and compounds for stimulating read-through of premature termination codons” (The UAB Research Foundation, priority 2016, dated 2021).
Marks after values point to notes of the source that are not given here.

Tests used:
[1] = system: FRT G542X cells; experiment: Transepithelial chloride conductance (TECC) assay in FRT G542X cells; type: cell-based, Rat; settings: 48 hours; for FRT G542X TECC Gt Mean ± SE: forskolin-stimulated; for forskolin-stimulated CFTR conductance vs vehicle control: 1 μM to 30 μM, P<0.05
Procedure: (§1) Stably transfected FRT cells as described herein cells were seeded onto Costar 24-well […] permeable supports at a density of ˜2×10^6 cells/filter and maintained at 37° C. with 5% CO2. Transepithelial resistance was assessed using an epithelial voltmeter to ensure the formation of tight monolayers, as defined by resistance >6 kcm^2. During initial evaluation of agents, cells were treated with compounds (10 μM), vehicle control (0.3% DMSO), or positive control (250 μg/mL G418) for 48 hours before transepithelial conductance (Gt) was assessed; subsequent studies used other concentrations of compounds. Measurements were taken at baseline, after the addition of 20 μM forskolin (FSK, a cAMP agonist that stimulates CFTR activity) and 10 μM CFTRInh-172 (a CFTR-specific inhibitor).
In the TECC assay, FRT G542X cells were treated with a single dose (10 μM) of each compound. FRT G542X cells were incubated for 48 hours with the compounds prior or vehicle control (0.3% DMSO). During the assay the baseline conductance (Gt) was initially determined prior to the acute addition of forskolin (20 μM) and VX-770 (10 μM) to stimulate CFTR activity; the CFTR inhibitor, CFTRInh-172 (10 μM), was added to inhibit CFTR activity at the end of the assay. In these experiments, an increase in CFTR conductance indicates the compounds stimulated read-through of the PTC in the constructs tested and that the CFTR was functional.
To prioritize which of the 48 read-through-positive compounds identified would be most efficacious in augmenting PTC read-through and restoring protein function, the TECC assay was repeated (in triplicate) using FRT G542X cells and FRT cells without CFTR (parental cells). Compounds (10 μM) or vehicle control (0.3% DMSO) were incubated for 48 hours with the cells. During the assay the baseline conductance (Gt) was initially determined prior to the acute addition of forskolin (20 μM) and VX-770 (10 μM) to stimulate CFTR activity; the CFTR inhibitor, CFTRInh-172 (10 μM), was added to inhibit CFTR activity at the end of the assay. G418 (250 μg/ml) was used as a positive control. In this assay, an increase in CFTR conductance indicates the compound stimulated read-through of the PTC in the constructs tested and that the CFTR was functional. The 48 compounds tested are provided in the Table 1 below (with the numerical designations corresponding to those shown in FIG. 4).
A series of functional assays was performed to evaluate the efficacy of these lead compounds in greater detail. Using FRT G542X cells, the optimal dose of each compound in augmenting chloride conductance (FIG. 5A) was determined. FRT G542X cells were incubated with compound (1 μM to 30 μM), G418 (250 μg/mL) or vehicle control (0.3% DMSO) for 48 hours. The conductance assay was conducted as described in Example 2 above. In this assay, an increase in CFTR conductance indicates the compounds stimulated read-through of the PTC in the constructs tested and that the CFTR was functional.

[2] = system: FRT W1282X cells; experiment: Transepithelial chloride conductance assay in FRT W1282X cells; type: cell-based, Rat; settings: 48 hours; escin 10 μM, VX-809 3 μM, GP-5 10 μM, C1+C2 10 μM
Procedure: as §1
Individual assays were performed as described herein.
As previously reported in the literature, the combination of CFTR correctors (such as VX-809) and CFTR potentiators (such as VX-770) act synergistically to improve CFTR function. […] Compounds alone or in the indicated combination were pre-incubated with FRT W1282X cells for 48 hours. During the assay the baseline conductance (Gt) was initially determined prior to the acute addition of forskolin (20 μM) and VX-770 (10 μM) to stimulate CFTR activity; the CFTR inhibitor, CFTRInh-172 (10 μM), was added to inhibit CFTR activity at the end of the assay. Enhancement of PTC read-through by the compounds of the present disclosure was determined by an increase in CFTR conductance. CFTR conductance also indicated the CFTR was functional as a result of the read-through of the PTC.
Compounds alone or in the indicated combination were pre-incubated with FRT G542X cells for 48 hours. […] Enhancement of PTC read-through by the compounds of the present disclosure was determined by an increase in CFTR conductance. CFTR conductance also indicated the CFTR was functional as a result of the read-through of the PTC.
It has been reported that aminoglycosides interfere with the action read-through stimulating compound. […] CFTR conductance also indicated the CFTR was functional as a result of the read-through of the PTC.
Stimulation of CFTR activity was determined by an increase in CFTR conductance. […] During the assay the baseline conductance (Gt) was initially determined prior to the acute addition of forskolin (20 μM) and GP-5 (10 μM) to stimulate CFTR activity; the CFTR inhibitor, […] (10 μM), was added to inhibit CFTR activity at the end of the assay.
The effect of the read-through stimulating compounds of the present disclosure in combination with the CFTR corrector VX-809 was further examined in FRT cells with the G542X, Y122X and W1282X mutations. […] CFTR conductance also indicated the CFTR was functional as a result of the read-through of the PTC.

[3] = system: FRT G542X^HRP cells; experiment: Horse radish peroxidase (HRP) CFTR cell surface expression assay, G542X; type: cell-based, Rat; settings: 48 hours; for FRT G542X HRP RLU Mean ± SE / HRP activity (CFTR cell surface expression) compared to vehicle control: 10 μM
Procedure: To measure cell surface expression of CFTR, FRT cells expressing the fusion protein of G542X CFTR and HRP were treated with 10 μM of lead compounds for 48 hours at 37° C. and 5% CO2. Holding DMSO concentration at 0.3%, FRT cells were washed 4 times in PBS supplemented with 1 mM MgCl2 and 0.1 mM CaCl2 and then incubated with the HRP substrate (Fisher, #PI-34096, 15 μl/well) at room temperature for 10 minutes. The luminescent HRP signal was analyzed via a Synergy NEO microplate reader (BioTek Instruments).
To obtain an additional readout of CFTR function, the effect of the lead compounds on CFTR cell surface expression was evaluated using the HRP assay. FTR G542X cells were incubated with compound (10 μM), G418 (250 μg/mL) or vehicle control (0.3% DMSO) for 48 hours prior to determination of HRP activity. In this assay, an increase in HRP activity indicates the compounds stimulated read-through of the PTC in the constructs tested.

[4] = system: mouse embryonic fibroblasts (MEF); settings: 48 h

| SMILES | CFTR stimulation (conductance) in the presence of forskolin and GP-5 ([1]; escin 10 μM, VX-809 3 μM, GP-5 10 μM, C1+C2 10 μM) | CFTR stimulation (conductance) in the presence of forskolin and GP-5 [2] | CFTR protein expression at the cell surface ([3]; escin 10 μM, VX-809 3 μM) | FRT G542X TECC Gt Mean ± SE ([1]; 10 μM) | decrease of total protein concentrations [4] | FRT G542X HRP RLU Mean ± SE [3] | HRP activity (CFTR cell surface expression) compared to vehicle control [3] | forskolin-stimulated CFTR conductance vs vehicle control [1] | FRT G542X TECC Gt Mean ± SE ([1]; 30 μM (footnote c)) | FRT G542X TECC Gt Mean ± SE ([1]; 3 μM (footnote b)) |
| --- | --- | --- | --- | --- | --- | --- | --- | --- | --- | --- |
| Cc1ccc(NC(=O)C2(c3ccc4c(c3)OC(F)(F)O4)CC2)nc1-c1cccc(C(=O)O)c1 [VX-809] | non-significant effects | varying stimulatory effects | significant stimulatory effects | – | – | – | – | – | – | – |
| COc1cccc2c1C(=O)c1c(O)c3c(c(O)c1C2=O)C[C@@](O)(C(=O)CO)C[C@@H]3O[C@H]1C[C@H](N)[C@H](O)[C@H](C)O1 [Doxorubicin, DOXORUBICIN] | – | – | – | 0.11 ± 0.01 mS/cm^2 | about 40% | 26269 ± 1426 RLU | significantly higher | – | – | – |
| CCCOc1ccc2nc(NC(=O)OC)[nH]c2c1 [Oxibendazole, OXIBENDAZOLE] | – | – | – | – | – | 28150 ± 908.6 RLU | significantly higher | significantly higher | 0.16 ± 0.005****^,c mS/cm^2 | – |
| C[C@@H]1C[C@@H]([C@H](O)CC2CC(=O)NC(=O)C2)C(=O)[C@@H](C)C1 [Cyclohexamide, CYCLOHEXIMIDE] | – | – | – | – | – | 38171 ± 1618 RLU | significantly higher | significantly higher | – | 0.13 ± 0.06**^,b mS/cm^2 |
